Data: ChEMBL document CHEMBL3232969, “Structure-based design and synthesis of tricyclic IAP (Inhibitors of Apoptosis Proteins) inhibitors” (Bioorg Med Chem Lett, 2014)
Values after ≈ are worked out from the molar mass of the structure shown.

How the values were obtained:
[1] = Aqueous solubility of the compound
[2] = molecular target: Baculoviral IAP repeat-containing protein 2 (Homo sapiens, UniProt Q13490)
Description: Inhibition of cIAP1 BIR3 domain (unknown origin) by fluorescence polarization assay

[3] = Lipophilicity, log D of the compound; settings: octanol/water
[4] = Intrinsic clearance in human liver microsomes
[5] = (§1) Percentage unbound in human plasma
[6] = test system: MDA-MB-231; test: Growth inhibition of human MDA-MB-231 cells; assay type: functional
[7] = molecular target: E3 ubiquitin-protein ligase XIAP (Homo sapiens, UniProt P98170); test: Inhibition of XIAP BIR3 domain (unknown origin) by fluorescence polarization assay
[8] = test system: Plasma; test: as §1

| Structure (SMILES) | solubility [1] | logD ([3]; logD) | microsomal CLint ([4]; liver microsomes, CLH) | fraction unbound ([5]; Fu) | GI50 ([6]; Homo sapiens, MDA-MB-231) | IC50 [7] | further results |
| --- | --- | --- | --- | --- | --- | --- | --- |
| CN[C@@H](C)C(=O)N[C@H](C(=O)N1CC[C@H]2CCN(CCc3ccccc3)C[C@H]21)C1CCCCC1 | > 1000 µM | 2.5 | 32 µL/min/mg | 0.057 | – | – | IC50 [2]: 27 nM |
| CN[C@@H](C)C(=O)N[C@H]1CCC[C@H]2C[C@H]3CCN(CCc4ccccc4)C[C@H]3N2C1=O | > 1000 µM | 1.3 | < 4 µL/min/mg | 0.51 | 320 nM | – | – |
| CN[C@@H](C)C(=O)N[C@H]1CCC[C@H]2C[C@H]3CCN(CCc4ccc(C(F)(F)F)cc4)C[C@H]3N2C1=O | > 1000 µM | 2.1 | 5.2 µL/min/mg | 0.18 | 970 nM | > 10 µM | – |
| CN[C@@H](C)C(=O)N[C@H]1CCC[C@H]2SC(C)(C)C(C(=O)Nc3cc(C)nn3-c3ccccc3)N2C1=O (some centres undefined) | – | – | – | – | – | – | IC50 [2]: 50 nM |
| CN[C@@H](C)C(=O)N[C@H]1CCC[C@H]2C[C@H]3CCN(CCc4ccc(Br)cc4)C[C@H]3N2C1=O | > 1000 µM | 2.2 | 4.7 µL/min/mg | 0.17 | 28 nM | – | – |
| CN[C@@H](C)C(=O)N[C@H]1CCC[C@H]2C[C@H]3CCN(CCc4ccccc4F)C[C@H]3N2C1=O | – | 1.4 | < 4 µL/min/mg | 0.49 | 96 nM | – | – |
| CN[C@@H](C)C(=O)N[C@H]1CCC[C@H]2C[C@H]3CCN(CCc4ccc(F)cc4)C[C@H]3N2C1=O | > 1000 µM | 1.3 | < 4 µL/min/mg | 0.48 | 120 nM | – | IC50 [2]: 21 nM |
| CN[C@@H](C)C(=O)N[C@H]1CCC[C@H]2C[C@H]3CCN(CCc4ccccc4OC)C[C@H]3N2C1=O | > 1000 µM | 0.9 | < 4 µL/min/mg | 0.34 | 230 nM | – | – |
| CN[C@@H](C)C(=O)N[C@H]1CCC[C@H]2C[C@H]3CCN(CCc4cccc(OC)c4)C[C@H]3N2C1=O | > 1000 µM | 0.9 | < 4 µL/min/mg | 0.47 | 670 nM | – | – |
| CN[C@@H](C)C(=O)N[C@H]1CCC[C@H]2C[C@H]3CCN(CCc4ccc(OC)cc4)C[C@H]3N2C1=O | > 1000 µM | 1 | < 4 µL/min/mg | 0.47 | 2600 nM | – | – |
| CN[C@@H](C)C(=O)N[C@H]1CCC[C@H]2C[C@H]3CCN(CCc4ccc(O)cc4)C[C@H]3N2C1=O | > 1000 µM | 0.2 | – | – | 200 nM | – | – |
| CN[C@@H](C)C(=O)N[C@H]1CCC[C@H]2C[C@H]3CCN(CCc4ccccc4C)C[C@H]3N2C1=O | > 1000 µM | 1.3 | 6.8 µL/min/mg | 0.48 | 370 nM | – | – |
| CN[C@@H](C)C(=O)N[C@H]1CCC[C@H]2C[C@H]3CCN(CCc4cccc(C)c4)C[C@H]3N2C1=O | > 1000 µM | 1.3 | 6.9 µL/min/mg | 0.47 | 310 nM | – | – |
| CN[C@@H](C)C(=O)N[C@H]1CCC[C@H]2C[C@H]3CCN(CCc4ccc(C)cc4)C[C@H]3N2C1=O | > 1000 µM | 1.6 | < 4 µL/min/mg | 0.32 | 160 nM | – | – |
| CN[C@@H](C)C(=O)N[C@H]1CCC[C@H]2C[C@H]3CCN(CCc4ccc(Cl)cc4)C[C@H]3N2C1=O | > 1000 µM | 1.8 | 6.6 µL/min/mg | 0.24 | 340 nM | – | – |
| CN[C@@H](C)C(=O)N[C@H]1CCC[C@H]2C[C@H]3CCN(CCc4ccc(Cl)c(Cl)c4)C[C@H]3N2C1=O | > 1000 µM | 2.3 | 28 µL/min/mg | 0.065 | 260 nM | – | – |
| CN[C@@H](C)C(=O)N[C@H]1CCC[C@H]2C[C@H]3CCN(CCc4ccc([N+](=O)[O-])cc4)C[C@H]3N2C1=O | > 1000 µM | 1 | < 4 µL/min/mg | 0.47 | 280 nM | – | – |
| CN[C@@H](C)C(=O)N[C@H]1CCC[C@H]2C[C@H]3CCN(CCc4c[nH]c5ccccc45)C[C@H]3N2C1=O | > 1000 µM | 0.9 | < 4 µL/min/mg | – | 490 nM | – | – |
| CN[C@@H](C)C(=O)N[C@H]1CCC[C@H]2C[C@H]3CCN(CCc4scnc4C)C[C@H]3N2C1=O | > 1000 µM | 0.3 | – | – | 4500 nM | – | – |
| CN[C@@H](C)C(=O)N[C@H]1CCC[C@H]2C[C@H]3CCN(CCc4ccccn4)C[C@H]3N2C1=O | – | -0.2 | – | – | 10000 nM | > 10 µM | – |

| Structure (SMILES) | solubility [1] | logD ([3]; logD) | microsomal CLint ([4]; liver microsomes, CLH) | fraction unbound ([5]; Fu) | GI50 ([6]; Homo sapiens, MDA-MB-231) | IC50 [7] | further results |
| --- | --- | --- | --- | --- | --- | --- | --- |
| CN[C@@H](C)C(=O)N[C@H]1CCC[C@H]2C[C@H]3CCN(CCC4=C(C)OCN4C)C[C@H]3N2C1=O | > 1000 µM | 0.1 | – | – | – | > 10 µM | – |
| CN[C@@H](C)C(=O)N[C@H]1CCC[C@H]2C[C@H]3CCN(CCc4nc5cc(C)ccc5[nH]4)C[C@H]3N2C1=O | > 1000 µM | 1.3 | 9.1 µL/min/mg | – | – | > 10 µM | – |
| CN[C@@H](C)C(=O)N[C@H]1CCC[C@H]2C[C@H]3CCN(Cc4ccccc4)C[C@H]3N2C1=O | > 1000 µM | 0.8 | 7.1 µL/min/mg | 0.52 | > 11000 nM | > 10 µM | – |
| CN[C@@H](C)C(=O)N[C@H]1CCC[C@H]2C[C@H]3CCN(CCCc4ccccc4)C[C@H]3N2C1=O | – | 1.6 | – | 0.47 | > 11000 nM | > 10 µM | – |
| CN[C@@H](C)C(=O)N[C@H]1CCC[C@H]2C[C@H]3CCN(CCC4CCCCC4)C[C@H]3N2C1=O | > 1000 µM | 1.5 | 5 µL/min/mg | 0.49 | 1300 nM | > 10 µM | – |
| CN[C@@H](C)C(=O)N[C@H]1CCC[C@H]2C[C@H]3CCN(CC4CCCCC4)C[C@H]3N2C1=O | – | 0.9 | 8.9 µL/min/mg | – | 2000 nM | > 10 µM | – |
| CN[C@@H](C)C(=O)N[C@H]1CCC[C@H]2C[C@H]3CCN(CC(C)C)C[C@H]3N2C1=O | – | 0.1 | – | – | – | > 10 µM | – |
| CN[C@@H](C)C(=O)N[C@H]1CCC[C@H]2C[C@H]3CCN(C(c4ccccc4)c4ccccc4)C[C@H]3N2C1=O | > 1000 µM | 2.7 | 14 µL/min/mg | 0.049 | – | > 10 µM | – |
| CCCCN1CC[C@@H]2C[C@@H]3CCC[C@H](NC(=O)[C@H](C)NC)C(=O)N3[C@@H]2C1 | – | – | – | – | – | > 10 µM | IC50 [2]: 1200 nM |
| CN[C@@H](C)C(=O)N[C@H]1CCC[C@H]2C[C@H]3CCN(C(=O)Cc4ccccc4)C[C@H]3N2C1=O | > 1000 µM | 0.4 | 6.5 µL/min/mg | 0.66 | 320 nM | – | – |
| CN[C@@H](C)C(=O)N[C@H]1CCC[C@H]2C[C@H]3CCN(C(=O)C(c4ccccc4)c4ccccc4)C[C@H]3N2C1=O | > 1000 µM | 1.4 | 27 µL/min/mg | 0.039 | 3000 nM | – | – |
| CN[C@@H](C)C(=O)N[C@H]1CCC[C@H]2C[C@H]3CCN(C(=O)c4ccccc4)C[C@H]3N2C1=O | > 1000 µM | -0.4 | 7.05 µL/min/mg | > 0.7 | – | > 10 µM | IC50 [2]: > 10000 nM |
| CN[C@@H](C)C(=O)N[C@H]1CCC[C@H]2C[C@H]3CCN(C(=O)OCc4ccccc4)C[C@H]3N2C1=O | – | – | – | 0.42 | > 369 nM | – | microsomal CLint ([4]; microsomes, CLH): 20 µL/min/mg |
| CN[C@@H](C)C(=O)N[C@H]1CCC[C@H]2C[C@H]3CCN(C(=O)Oc4ccccc4)C[C@H]3N2C1=O | 700 µM (≈ 300 µg/mL) | – | – | – | 910 nM | – | logD [3]: 0.7; microsomal CLint ([4]; liver microsomes): 6.3 µL/min/mg; fraction unbound [5]: 0.51 |
| CN[C@@H](C)C(=O)N[C@H]1CCC[C@H]2C[C@H]3CCN(C(=O)Nc4ccccc4)C[C@H]3N2C1=O | > 1000 µM | 0.6 | 6.7 µL/min/mg | 0.62 | 3900 nM | – | – |
| CN[C@@H](C)C(=O)N[C@H]1CCC[C@H]2C[C@H]3CCN(S(=O)(=O)Cc4ccccc4)C[C@H]3N2C1=O | > 1000 µM | 0.4 | 25 µL/min/mg | 0.4 | > 11000 nM | – | IC50 [2]: 2800 nM |
| CN[C@@H](C)C(=O)N[C@H]1CCC[C@H]2C[C@H]3CCN(S(=O)(=O)c4ccccc4)C[C@H]3N2C1=O | > 1000 µM | 0.7 | 7.1 µL/min/mg | 0.2 | – | – | IC50 [2]: 8000 nM |
| CN[C@@H](C)C(=O)N[C@H]1CCC[C@H]2C[C@H]3CCN(CC(C)c4ccccc4)C[C@H]3N2C1=O (mixture of isomers) | – | 1.4 | < 4 µL/min/mg | 0.18 | 2500 nM | – | IC50 [2]: 180 nM |
| CN[C@@H](C)C(=O)N[C@H]1CCC[C@H]2C[C@H]3CCN(C(=O)C(OCC#CC#CCOC(C(=O)N4CC[C@@H]5C[C@@H]6CCC[C@H](NC(=O)[C@H](C)NC)C(=O)N6[C@@H]5C4)c4ccccc4)c4ccccc4)C[C@H]3N2C1=O (single isomer, unassigned; isomer 2) | – | – | – | – | – | – | GI50 [6]: 200 nM; logD [3]: 1.9; Fu [8]: 10% |
